Values of other authors in patent US20250250539A1, “METHOD FOR EVALUATING ACTIVITY OF INHIBITING OR PROMOTING AGGREGATION OF AGGREGATING PROTEINS” (KANEKA CORPORATION, priority 2022, published 2025).

Tested on: amyloid β protein
Details: known cell-free evaluation system

SMILES: O=C(/C=C/c1ccc(O)c(O)c1)O[C@H](Cc1ccc(O)c(O)c1)C(=O)O [rosmarinic acid]
- activity of inhibiting aggregation: exhibiting activity of inhibiting aggregation
